Consider 3 molecules from publication PMC3747596 (PLoS ONE, 2013).

The target in assay [1] is T1, α1A-AR (Homo sapiens, UniProt P35348).
T1 sequence (P35348 1-466): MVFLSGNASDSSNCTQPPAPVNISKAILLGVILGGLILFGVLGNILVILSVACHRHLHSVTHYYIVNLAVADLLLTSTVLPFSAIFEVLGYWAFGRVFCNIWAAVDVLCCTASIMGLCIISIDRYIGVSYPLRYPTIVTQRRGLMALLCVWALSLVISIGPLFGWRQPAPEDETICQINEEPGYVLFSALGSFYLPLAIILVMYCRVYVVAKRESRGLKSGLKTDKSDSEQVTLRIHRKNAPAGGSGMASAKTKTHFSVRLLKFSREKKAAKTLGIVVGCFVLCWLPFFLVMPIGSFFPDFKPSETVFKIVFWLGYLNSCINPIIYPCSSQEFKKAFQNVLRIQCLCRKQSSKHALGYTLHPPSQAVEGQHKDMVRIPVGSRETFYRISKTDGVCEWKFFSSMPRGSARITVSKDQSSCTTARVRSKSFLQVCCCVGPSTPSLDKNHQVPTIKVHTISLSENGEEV
As to the kind of experiment: Intracellular calcium mobilization assay, α1A-AR.

In a further assay the target is M1-R (Homo sapiens, UniProt P11229). Details: method as in ref 9 = [9]; 9 Inan S (2010) Pharmacological and neuroanatomical analysis of GNTI-induced repetitive behavior in mice [Ph.D. thesis Thesis]. Philadelphia, PA: Temple University. Available: http://digital.library.t. As to conditions: at 1 µM; [3H]N-methylscopolamine; cited from earlier work.
Assay [2] addresses T1, α1A-AR. Nature of the assay: PI hydrolysis assay, α1A-AR. As to conditions: hydrolysis of phosphatidylinositol 4,5-bisphosphate (PI).
Assay [3] has as its target noradrenaline transporter (NET) (Homo sapiens, UniProt P23975). Nature of the assay: Inhibition of noradrenaline transporter, fluorescent dye uptake. As to conditions: 95% CI = 0.5 to 2.6 µM; read-out: IC50, inhibition of noradrenaline transport. The assay is classed as cell-based.
In assay [4] the target is N-methyl-D-aspartate (NMDA) receptor. Details: method as in PMID 7681005. As to conditions: [3H]CGP-39,653, glutamate site; cited from earlier work.
For assay [5], the system named is glucocorticoid receptor NR3C1. Details: method as in PMID 10875228. As to conditions: at 10 µM; cited from earlier work.
The target of assay [6] is nociceptin/orphanin FQ receptor (NOP). Details: method as in PMID 8943250. Conditions: cited from earlier work.
Assay [7] deals with nociceptin/orphanin FQ receptor (NOP). Details: method as in PMID 11510482. Conditions: at 10 µM; cited from earlier work.

Sequence of noradrenaline transporter (NET) (P23975 whole entry): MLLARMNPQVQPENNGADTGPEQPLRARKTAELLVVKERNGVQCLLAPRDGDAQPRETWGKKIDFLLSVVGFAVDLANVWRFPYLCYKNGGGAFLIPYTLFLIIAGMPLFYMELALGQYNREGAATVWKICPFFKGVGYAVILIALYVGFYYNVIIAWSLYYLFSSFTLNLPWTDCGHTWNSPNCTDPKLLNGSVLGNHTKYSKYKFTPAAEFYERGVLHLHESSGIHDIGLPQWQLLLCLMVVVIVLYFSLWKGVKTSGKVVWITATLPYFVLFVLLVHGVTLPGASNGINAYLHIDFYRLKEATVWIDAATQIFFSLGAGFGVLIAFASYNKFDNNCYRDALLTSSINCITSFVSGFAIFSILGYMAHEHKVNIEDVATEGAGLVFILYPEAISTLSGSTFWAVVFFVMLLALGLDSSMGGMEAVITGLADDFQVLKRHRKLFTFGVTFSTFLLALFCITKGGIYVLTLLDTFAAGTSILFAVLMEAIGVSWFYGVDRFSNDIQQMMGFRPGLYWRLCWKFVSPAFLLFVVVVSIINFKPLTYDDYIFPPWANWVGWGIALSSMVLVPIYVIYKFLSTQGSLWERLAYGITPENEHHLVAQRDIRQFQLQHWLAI
Sequence of M1-R (P11229 whole entry): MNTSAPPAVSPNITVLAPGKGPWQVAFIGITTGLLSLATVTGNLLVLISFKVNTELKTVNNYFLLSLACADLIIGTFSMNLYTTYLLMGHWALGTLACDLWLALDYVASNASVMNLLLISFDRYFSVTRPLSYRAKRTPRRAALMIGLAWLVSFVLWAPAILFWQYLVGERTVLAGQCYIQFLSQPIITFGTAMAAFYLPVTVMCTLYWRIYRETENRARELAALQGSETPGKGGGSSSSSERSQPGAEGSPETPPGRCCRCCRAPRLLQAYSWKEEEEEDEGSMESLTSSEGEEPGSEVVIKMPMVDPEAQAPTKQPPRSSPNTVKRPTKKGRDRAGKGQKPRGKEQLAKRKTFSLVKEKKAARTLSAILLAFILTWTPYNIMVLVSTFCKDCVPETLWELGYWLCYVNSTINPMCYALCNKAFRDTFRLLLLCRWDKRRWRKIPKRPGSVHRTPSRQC

For `N=C(N)Nc1ccc2[nH]c3c(c2c1)C[C@@]1(O)[C@H]2Cc4ccc(O)c5c4[C@@]1(CCN2CC1CC1)[C@H]3O5` [GNTI, 5′-guanidinonaltrindole], at α1A-AR [1], the EC50 is 41 nM. Besides, the “activation of α1A-AR / inhibition of activation by noradrenaline” value on α1A-AR [1] (calcium mobilization, GNTI 30 µM) is listed as “neither activated α1A-AR nor inhibited activation by noradrenaline”. The Emax on α1A-AR [1] (read-out: increase of the maximal response to noradrenaline) was at most 20%. Also, the “displacement from M1-R” value on M1-R is 52%. Besides, the “effect on maximal response to noradrenaline, PI hydrolysis” value on α1A-AR [2] was “slightly reduced the maximal response to noradrenaline”.
Regarding `CC(C)[C@@H](CN1CC[C@@](C)(c2cccc(O)c2)[C@@H](C)C1)NC(=O)[C@H]1Cc2ccc(O)cc2CN1` [JDTic], the IC50 in assay [3] is 1100 nM.
As for `Oc1ccc2c3c1O[C@H]1c4[nH]c5c(c4C[C@@]4(O)[C@@H](C2)N(CC2CC2)CC[C@]314)C[C@@]1(O)[C@H]2Cc3ccc(O)c4c3[C@@]1(CCN2CC1CC1)[C@H]5O4` [nor-BNI, Nor-binaltorphimine], the figures for the Ki in assay [4] and in assay [6] were over 1000 nM and 780 nM, respectively. In addition, the “binding to glucocorticoid receptor NR3C1” value in assay [5] is reported as “No binding was detected”. Also, the “binding to NOP” value in assay [7] was “no binding”.
